Values quoted from earlier work, collected in patent US9604971B2, “Co-crystal of the PAR-1 receptor antagonists vorapaxar and aspirin” (ARALEZ PHARMACEUTICALS TRADING DAC, priority 2013, dated 2017).

Conditions: over time; reverted to the crystalline structure of Form 1

SMILES: CCOC(=O)N[C@@H]1CC[C@@H]2[C@@H](C1)C[C@H]1C(=O)O[C@H](C)[C@H]1[C@H]2/C=C/c1ccc(-c2cccc(F)c2)cn1 [Form 2]
- stability of crystalline polymorphic form: unstable
